{"source": "ChEMBL document CHEMBL5331145", "about": "“Discovery of a Novel Bifunctional Steroid Analog, YXG-158, as an Androgen Receptor Degrader and CYP17A1 Inhibitor for the Treatment of Enzalutamide-Resistant Prostate Cancer” (J Med Chem, 2023)", "key": {"[1]": {"assay": "Half life in Sprague-Dawley rat at 10 mg/kg, po measured upto 24 hrs by LC-MS/MS analysis", "type": "ADME, organism-based", "conditions": "in vivo"}, "[2]": {"assay": "Half life in Sprague-Dawley rat at 5 mg/kg, iv measured upto 24 hrs by LC-MS/MS analysis", "type": "ADME, organism-based", "conditions": "in vivo"}, "[3]": {"assay": "Half life in dog at 2 mg/kg, iv measured upto 24 hrs by LC-MS/MS analysis", "type": "ADME, organism-based, Canis lupus familiaris", "conditions": "in vivo"}, "[4]": {"assay": "Tmax in Sprague-Dawley rat at 10 mg/kg, po measured upto 24 hrs by LC-MS/MS analysis", "type": "ADME, organism-based", "conditions": "in vivo"}, "[5]": {"assay": "Cmax in Sprague-Dawley rat at 10 mg/kg, po measured upto 24 hrs by LC-MS/MS analysis", "type": "ADME, organism-based", "design": "dose 10 mg/kg, time < 24 hrs, route po", "conditions": "in vivo"}, "[6]": {"assay": "Cmax in Sprague-Dawley rat at 5 mg/kg, iv measured upto 24 hrs by LC-MS/MS analysis", "type": "ADME, organism-based", "design": "dose 5 mg/kg, time < 24 hrs, route iv", "conditions": "in vivo"}, "[7]": {"assay": "Cmax in dog at 2 mg/kg, iv measured upto 24 hrs by LC-MS/MS analysis", "type": "ADME, organism-based, Canis lupus familiaris", "design": "time < 24 hrs, dose 2 mg/kg, route iv", "conditions": "in vivo"}, "[8]": {"assay": "AUC(0 to t) in Sprague-Dawley rat at 10 mg/kg, po measured upto 24 hrs by LC-MS/MS analysis", "type": "ADME, organism-based", "conditions": "in vivo"}, "[9]": {"assay": "AUC(0 to t) in Sprague-Dawley rat at 5 mg/kg, iv measured upto 24 hrs by LC-MS/MS analysis", "type": "ADME, organism-based", "conditions": "in vivo"}, "[10]": {"assay": "AUC(0 to t) in dog at 2 mg/kg, iv measured upto 24 hrs by LC-MS/MS analysis", "type": "ADME, organism-based, Canis lupus familiaris", "conditions": "in vivo"}, "[11]": {"assay": "Clearance in Sprague-Dawley rat at 5 mg/kg, iv measured upto 24 hrs by LC-MS/MS analysis", "type": "ADME, organism-based", "conditions": "in vivo"}, "[12]": {"assay": "Clearance in dog at 2 mg/kg, iv measured upto 24 hrs by LC-MS/MS analysis", "type": "ADME, organism-based, Canis lupus familiaris", "conditions": "in vivo"}, "[13]": {"assay": "Volume of distribution at steady state in Sprague-Dawley rat at 5 mg/kg, iv measured upto 24 hrs by LC-MS/MS analysis", "type": "ADME, organism-based", "conditions": "in vivo, read-out: Vdss"}, "[14]": {"assay": "Volume of distribution at steady state in dog at 2 mg/kg, iv measured upto 24 hrs by LC-MS/MS analysis", "type": "ADME, organism-based, Canis lupus familiaris", "conditions": "in vivo, read-out: Vdss"}, "[15]": {"assay": "Oral bioavailability in Sprague-Dawley rat at 10 mg/kg measured upto 24 hrs by LC-MS/MS analysis", "type": "ADME, organism-based", "conditions": "in vivo"}, "[16]": {"assay": "Cmax in dog at 10 mg/kg, po measured upto 24 hrs by LC-MS/MS analysis", "type": "ADME, organism-based, Canis lupus familiaris", "design": "dose 10 mg/kg, time < 24 hrs, route po", "conditions": "in vivo"}, "[17]": {"assay": "Half life in dog at 10 mg/kg, po measured upto 24 hrs by LC-MS/MS analysis", "type": "ADME, organism-based, Canis lupus familiaris", "conditions": "in vivo"}, "[18]": {"assay": "Tmax in dog at 10 mg/kg, po measured upto 24 hrs by LC-MS/MS analysis", "type": "ADME, organism-based, Canis lupus familiaris", "conditions": "in vivo"}, "[19]": {"assay": "AUC(0 to t) in dog at 10 mg/kg, po measured upto 24 hrs by LC-MS/MS analysis", "type": "ADME, organism-based, Canis lupus familiaris", "conditions": "in vivo"}, "[20]": {"assay": "Oral bioavailability in dog at 10 mg/kg measured upto 24 hrs by LC-MS/MS analysis", "type": "ADME, organism-based, Canis lupus familiaris", "conditions": "in vivo"}}, "data": [{"smiles": "Cc1cn(C2=CCC3C4CC=C5C[C@@H](NC(=O)c6ccc(F)cc6)CC[C@]5(C)C4CC[C@]23C)cn1.Cl", "note": "(stereo not given in full)", "values": [{"measurement": "half-life", "setting": "[1]", "result": 6.82, "unit": "h"}, {"measurement": "half-life", "setting": "[2]", "result": 6.39, "unit": "h"}, {"measurement": "half-life", "setting": "[3]", "result": 5.15, "unit": "h"}, {"measurement": "Tmax", "setting": "[4]", "result": 0.83, "unit": "h"}, {"measurement": "Cmax", "setting": "[5]", "result": 8800, "unit": "ng/mL"}, {"measurement": "Cmax", "setting": "[6]", "result": 14300, "unit": "ng/mL"}, {"measurement": "Cmax", "setting": "[7]", "result": 1860, "unit": "ng/mL"}, {"measurement": "AUCt", "setting": "[8]", "result": 84338, "unit": "h/ng/mL"}, {"measurement": "AUCt", "setting": "[9]", "result": 45408, "unit": "h/ng/mL"}, {"measurement": "AUCt", "setting": "[10]", "result": 4737, "unit": "h/ng/mL"}, {"measurement": "clearance", "setting": "[11]", "result": 1.82, "unit": "mL/min/kg"}, {"measurement": "clearance", "setting": "[12]", "result": 6.86, "unit": "mL/min/kg"}, {"measurement": "Vd", "setting": "[13]", "result": 0.77, "unit": "L/kg"}, {"measurement": "Vd", "setting": "[14]", "result": 1.92, "unit": "L/kg"}, {"measurement": "bioavailability", "setting": "[15]", "result": 93, "unit": "%"}, {"measurement": "Cmax", "setting": "[16]", "result": 907, "unit": "ng/mL"}, {"measurement": "half-life", "setting": "[17]", "result": 12.4, "unit": "h"}, {"measurement": "Tmax", "setting": "[18]", "result": 6, "unit": "h"}, {"measurement": "AUCt", "setting": "[19]", "result": 10460, "unit": "h/ng/mL"}, {"measurement": "bioavailability", "setting": "[20]", "result": 44, "unit": "%"}]}]}
